In patent publication US10058550B2, “Methods of treating heart failure” (priority 2015, dated 2018):

What was measured:
[1] = target: human APJ receptor (Homo sapiens (Human), UniProt P35414); assay: biochemical; type: biochemical; conditions: read-out: Activity hAPJ SPA EC50 IP
Method in brief: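 Membranes from CHO cells stably expressing cloned human APJ were incubated with WGA SPA beads in 20 mM HEPES pH 7.5, 5 mM MgCl2, 0.1% BSA, 200 mM NaCl and 3 μM GDP. Reaction started with 0.2 nM [35S]GTPγS ± ligands, 90 min at RT. EC50 obtained by non-linear regression as mean of independent experiments.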

[2] = test system: isolated perfused rat hearts; assay: Load independent inotropic effects, ex vivo assay (isolated perfused rat hearts, Langendorff); conditions: percent change over vehicle
From the text: Evidence for Load Independent Inotropic Effects with APJ Agonists using Ex Vivo Assay (Isolated Perfused Rat Hearts)
Naive Sprague Dawley® SD rats (Harlan laboratories (Livermore, Calif. USA)) were anesthetized and hearts were excised followed by cannulation in the Langendorff apparatus (Harvard apparatus, Holliston, Mass. USA) via aorta. […] The pressure of the solution causes the aortic valve to shut and the perfusate is then forced into the ostium and the coronary vessels. This allows the heart to beat for several h. A balloon was inserted into the left ventricle (LV) to measure dP/dtmax (derivative of left ventricular pressure) as an index of cardiac contractility. The APJ agonist was perfused constantly in a dose dependent manner into the heart to examine cardiac contractility.

[3] = test system: heart failure rat model; assay: Cardiac contractility in vivo in heart failure rat model (MI rat model); conditions: for MI Rat Model dP/dtmax (%): in vivo, heart failure (MI) rat model, acute administration for 30 min; for cardiac contractility as measured by dP/dtmax (derivative of left ventricular pressure): male Lewis rats, heart failure by ligation of left descending coronary artery, ejection fraction <35%, dosed acutely for 30 min
Description: Male Lewis rats (Charles River, USA) at 2-3 months of age were used for the study. […] APJ agonists were administered dose dependently acutely for a period of 30 min.

[4] = test system: heart failure rats; assay: Cardiac function with APJ small molecule agonists in the presence of ACE inhibitor captopril in heart failure rats in vivo; design: species or system rat; conditions: captopril alone, acute settings
From the text: The interaction between […] (ACE2) and Apelin biology is complicated. To investigate the interaction between the Apelin-APJ and ACE signalling pathways, we examined the improvement in cardiac function with APJ small molecule agonists in the presence of ACE inhibitor captopril in heart failure rats in vivo.

[5] = test system: isolated perfused rat hearts; assay: Langendorff isolated perfused rat heart (left ventricular dP/dt); conditions: ex vivo naive Sprague Dawley rat hearts, Langendorff apparatus, as a function of concentration
[6] = target: APJ/AT1R (Homo sapiens (Human), UniProt P30556+P35414); assay: IP1 assay (TR-FRET) for allosteric interaction between APJ and AT1R in CHO-K1 APJ/AT1R cells; type: cell-based; conditions: addition of losartan
APJ/AT1R, sequence (P35414 whole entry, looked up): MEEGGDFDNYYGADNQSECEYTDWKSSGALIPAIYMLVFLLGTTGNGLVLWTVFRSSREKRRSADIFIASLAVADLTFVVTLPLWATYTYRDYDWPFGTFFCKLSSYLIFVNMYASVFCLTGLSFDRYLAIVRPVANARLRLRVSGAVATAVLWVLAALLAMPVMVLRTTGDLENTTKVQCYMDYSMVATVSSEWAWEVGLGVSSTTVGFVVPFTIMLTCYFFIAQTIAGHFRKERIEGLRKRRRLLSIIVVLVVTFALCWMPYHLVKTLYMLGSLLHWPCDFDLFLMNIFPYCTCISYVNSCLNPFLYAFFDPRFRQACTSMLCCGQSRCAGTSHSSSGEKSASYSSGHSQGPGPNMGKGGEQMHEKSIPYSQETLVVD
APJ/AT1R, sequence (P30556 whole entry, looked up): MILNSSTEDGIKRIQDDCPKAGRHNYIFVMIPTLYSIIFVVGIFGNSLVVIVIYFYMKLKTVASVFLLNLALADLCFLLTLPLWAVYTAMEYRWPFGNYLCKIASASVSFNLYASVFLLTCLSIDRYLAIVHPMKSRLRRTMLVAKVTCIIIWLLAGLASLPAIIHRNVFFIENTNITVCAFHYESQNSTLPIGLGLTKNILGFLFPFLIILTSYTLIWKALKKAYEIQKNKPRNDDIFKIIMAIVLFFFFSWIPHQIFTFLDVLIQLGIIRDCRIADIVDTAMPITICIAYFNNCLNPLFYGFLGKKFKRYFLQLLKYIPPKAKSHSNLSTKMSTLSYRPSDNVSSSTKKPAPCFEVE
Description: Single and double stable recombinant cell lines were generated for human APJ and the AT1R receptor in CHO K1 cells tagged either with FLAG or hemagglutinin (HA) tag. Briefly, the CHO-K1 APJ/AT1R cells were seeded in culture medium of DMEM-F12 and 10% FBS at a density of 15 k/well in a 96 well plate overnight. The next day, the culture medium was replaced with medium containing no serum for 4 hours. The compound AngII at a range of concentrations (1 pM-10 μM) with or without different concentrations of APJ agonists were diluted in stimulation buffer and added to the cell plate. The plate was sealed and incubated for 1 hour. This was followed by addition of IP-d2 conjugate followed by europium cryptate antibody conjugate into the wells. The plate was sealed, followed with incubation for 2 hours at room temperature. Time-resolved fluorescence resonance energy (TR-FRET) at 620 nm and 665 nm was measured after 2 hours with an Envision reader. The signal ratios and delta F were calculated and the amount of IP1 produced was inversely proportional to the TR-FRET ratio, 665/620 nm.

human APJ receptor, sequence (P35414 whole entry): as the sequence (P35414 whole entry, looked up) above

| Compound | EC50 [1] [nM] | Isolated Heart Assay dP/dtmax (%) [2] [%] | Isolated Heart Assay dP/dtmin (%) [2] [%] | left ventricular dP/dtmax (load independent cardiac contractility) [5] | left ventricular dP/dtmin (load independent cardiac relaxation) [5] | cardiac contractility as measured by dP/dtmax (derivative of left ventricular pressure) [3] | other results |
| --- | --- | --- | --- | --- | --- | --- | --- |
| COc1cccc(OC)c1-n1c(NS(=O)(=O)[C@H](C)[C@@H](OC)c2ccc(Cl)cn2)nnc1-c1cccnc1 (single isomer, unassigned) [Example 531.0, (1S,2R)-1-(5-chloro-2-pyridinyl)-N-(4-(2,6-dimethoxyphenyl)-5-(3-pyridinyl)-4H-1,2,4-triazol-3-yl)-1-methoxy-2-propanesulfonamide or (1R,2S)-1-(5-chloro-2-pyridinyl)-N-(4-(2,6-dimethoxyphenyl)-5-(3-pyridinyl)-4H-1,2,4-triazol-3-yl)-1-methoxy-2-propanesulfonamide] | 0.2 | 4.1 | 1.9 |  |  |  |  |
| COc1cccc(OC)c1-n1c(NS(=O)(=O)[C@H](C)[C@@H](OC)c2ncc(Cl)cn2)nnc1-c1cncc(C)c1 (single isomer, unassigned) [Example 557.0] | 0.31 | 17.0 | 20.0 |  |  |  | MI Rat Model dP/dtmax (%) [3]: No effect |
| C[C@H](CS)C(=O)N1CCC[C@H]1C(=O)O [Captopril, captopril] |  |  |  |  |  |  | contractility [4]: does not show a marked improvement; ejection fraction [4]: does not show a marked improvement |
| COc1cccc(OC)c1-n1c(NS(=O)(=O)[C@@H](C)[C@H](O)c2ncc(C)cn2)nnc1-c1cccc(C)n1 [Example 99.0, (1R,2S)-N-(4-(2,6-dimethoxyphenyl)-5-(6-methylpyridin-2-yl)-4H-1,2,4-triazol-3-yl)-1-hydroxy-1-(5-methylpyrimidin-2-yl)propane-2-sulfonamide] | 2.3 |  |  | increases load independent cardiac contractility | increases load independent cardiac relaxation | increase in cardiac contractility |  |
| CCO[C@H](c1ncc(C)cn1)[C@H](C)S(=O)(=O)Nc1nnc(-c2cccnc2)n1-c1c(OC)cccc1OC [Example 109.0, (1R,2S)-N-(4-(2,6-dimethoxyphenyl)-5-(pyridin-3-yl)-4H-1,2,4-triazol-3-yl)-1-ethoxy-1-(5-methylpyrimidin-2-yl)propane-2-sulfonamide] | 0.85 | 15 | 25 | increases load independent cardiac contractility | increases load independent cardiac relaxation | increase in cardiac contractility | MI Rat Model dP/dtmax (%) [3]: 20% |
| COc1cccc(OC)c1-n1c(NS(=O)(=O)[C@@H](C)[C@H](C)c2ncc(C)cn2)nnc1-c1cncc(C)c1 [Example 263.0, (2S,3R)—N-(4-(2,6-dimethoxyphenyl)-5-(5-methylpyridin-3-yl)-4H-1,2,4-triazol-3-yl)-3-(5-methylpyrimidin-2-yl)butane-2-sulfonamide] |  |  |  | increases load independent cardiac contractility | increases load independent cardiac relaxation | increase in cardiac contractility |  |
| COc1cccc(OC)c1-n1c(NS(=O)(=O)[C@@H](C)[C@H](O)c2ncc(C)cn2)nnc1-c1cncc(C)c1 [Example 371.0, (1R,2S)—N-(4-(2,6-dimethoxyphenyl)-5-(5-methylpyridin-3-yl)-4H-1,2,4-triazol-3-yl)-1-hydroxy-1-(5-methylpyrimidin-2-yl)propane-2-sulfonamide] |  |  |  | increases load independent cardiac contractility | increases load independent cardiac relaxation |  |  |
| COc1cccc(OC)c1-n1c(NS(=O)(=O)[C@@H](C)[C@H](C)c2ncc(C)cn2)nnc1-c1cccnc1 [Example 586.0, (2S,3R)—N-(4-(2,6-dimethoxyphenyl)-5-(3-pyridinyl)-4H-1,2,4-triazol-3-yl)-3-(5-methyl-2-pyrimidinyl)-2-butanesulfonamide] | 0.3 |  |  | increases load independent cardiac contractility | increases load independent cardiac relaxation | increase in cardiac contractility |  |
| Cc1cnc([C@@H](C)[C@H](C)S(=O)(=O)Nc2nnc(-c3cncc(C)c3)n2-c2c(F)cccc2F)nc1 [Example 826.0, (2S,3R)-N-(4-(2,6-difluorophenyl)-5-(5-methyl-3-pyridinyl)-4H-1,2,4-triazol-3-yl)-3-(5-methyl-2-pyrimidinyl)-2-butanesulfonamide, (2R,3S)-N-(4-(2,6-difluorophenyl)-5-(5-methyl-3-pyridinyl)-4H-1,2,4-triazol-3-yl)-3-(5-methyl-2-pyrimidinyl)-2-butanesulfonamide] |  | 6.02 | 5.16 |  |  |  |  |
| COc1cccc(-c2nnc(NS(=O)(=O)[C@@H](C)[C@H](C)c3cnc(C)cn3)n2C2CCOCC2)n1 [Example 843.0, (2S,3R)-N-(5-(6-methoxy-2-pyridinyl)-4-(tetrahydro-2H-pyran-4-yl)-4H-1,2,4-triazol-3-yl)-3-(5-methyl-2-pyrazinyl)-2-butanesulfonamide] | 970 |  |  |  |  |  |  |
| COc1cnc([C@@H](C)[C@H](C)S(=O)(=O)Nc2nnc(-c3cccc(OC)n3)n2C2CCOCC2)cn1 [Example 844.0, (2S,3R)-3-(5-methoxy-2-pyrazinyl)-N-(5-(6-methoxy-2-pyridinyl)-4-(tetrahydro-2H-pyran-4-yl)-4H-1,2,4-triazol-3-yl)-2-butanesulfonamide] | 86 |  |  |  |  |  |  |
| CCCCc1nc(Cl)c(CO)n1Cc1ccc(-c2ccccc2-c2nn[nH]n2)cc1 [losartan] |  |  |  |  |  |  | positive cooperativity induced by APJ small molecule agonists in the presence of AngII [6]: relieved this cooperativity |
| (2S)-N-(4-(2,6-dimethoxyphenyl)-5-(5-methoxy-2-pyridinyl)-4H-1,2,4-triazol-3-yl)-1-(5-fluoro-2-pyrimidinyl)-2-propanesulfonamide and (2R)-N-(4-(2,6-dimethoxyphenyl)-5-(5-methoxy-2-pyridinyl)-4H-1,2,4-triazol-3-yl)-1-(5-fluoro-2-pyrimidinyl)-2-propanesulfonamide [Example 153.0] | 160 |  |  |  |  |  |  |
